Several values for one entry are separate records, joined by “and”; a condition that tells them apart may be missing. Equal entries are not always repeated.
Assays:
HeLa S3 cells = assay: Growth inhibitory effect on cultured HeLa cells; assay type: cell-based; conditions: Cu-free; three days cultivation with sample
Protocol: 3. Growth inhibitory effect on cultured HeLa cells.
HeLa S3 cells were inoculated into a medium (MEM with the addition of 10% calf serum) in a plastic Petri dish. After two days from the inoculation, N-methylbleomycinic acid or a N-methylbleomycin was added to the dish and after cultivation for further three days, the number of cells was counted. The growth inhibition (%) was calculated by the following equation: [formula] where A is the final number of cells on the third day from the addition of the test sample, B the final number of cells in a control culture without the addition of the test sample, and C the number of cells at the time of addition of the test sample. The value of ID50 (concentration for 50% inhibition) was calculated from the graph obtained by plotting the concentration of sample against the growth inhibition. A similar test was performed on bleomycinic acid and bleomycins used as control.

[1] = tested on: Mycobacterium smegmatis ATCC 607; assay: Antimicrobial activity against Mycobacterium smegmatis ATCC 607 (cylinder agar plate method); assay type: cell-based
Protocol: 4. Antimicrobial activity against Mycobacterium smegmatis ATCC 607.
The antibacterial activity was assayed by the cylinder agar plate method against the above bacterium by assuming the activity of standard copper-free bleomycin A2 to be 1,000 mcg units/mg.
Note: Antimicrobial activity was assayed against Mycobacterium smegmatis ATCC 607 by assuming the activity of bleomycin A2 (copper-free form) to be 1,000 mcg units/mg. The same shall apply hereinafter.

[2] = tested on: DNA labelled with tritium; assay: DNA-strand cleaving activity in cell-free system; assay type: biochemical; conditions: copper-free compound with divalent iron, oxygen, 37° C., 5 minutes
Protocol: 2. DNA-strand cleaving activity in cell-free system.
The mechanism of carcinostatic action of bleomycins has been believed to involve the cleavage of DNA chain caused by the joint action of copper-free bleomycins, divalent iron and molecular oxygen. Similar activity of N-methylbleomycins were also confirmed.
A mixture of divalent iron and a copper-free N-methylbleomycin was dissolved together with DNA labelled with tritium in a M/10 phosphate buffer of pH 7.4 The resulting solution was allowed to react in the presence of oxygen at 37° C. for 5 minutes. To the reaction mixture, was added 25% trichloroacetic acid. The precipitate was removed by centrifugation and the supernatant (acid-soluble fraction) was assayed for radioactivity to obtain the percentage of acid-soluble DNA in acid. This percentage was utilized as an index of the degree of DNA-strand cleavage. Similar test was repeated on bleomycins A2 and B2 used as reference.

inactivating enzyme = inactivating enzyme (Rattus norvegicus, UniProt P70645); conditions: rat liver extract, 37° C., 15, 30, 60 and 120 minutes; residual activity against Mycobacterium smegmatis ATCC 607
Sequence of inactivating enzyme (P70645 whole entry): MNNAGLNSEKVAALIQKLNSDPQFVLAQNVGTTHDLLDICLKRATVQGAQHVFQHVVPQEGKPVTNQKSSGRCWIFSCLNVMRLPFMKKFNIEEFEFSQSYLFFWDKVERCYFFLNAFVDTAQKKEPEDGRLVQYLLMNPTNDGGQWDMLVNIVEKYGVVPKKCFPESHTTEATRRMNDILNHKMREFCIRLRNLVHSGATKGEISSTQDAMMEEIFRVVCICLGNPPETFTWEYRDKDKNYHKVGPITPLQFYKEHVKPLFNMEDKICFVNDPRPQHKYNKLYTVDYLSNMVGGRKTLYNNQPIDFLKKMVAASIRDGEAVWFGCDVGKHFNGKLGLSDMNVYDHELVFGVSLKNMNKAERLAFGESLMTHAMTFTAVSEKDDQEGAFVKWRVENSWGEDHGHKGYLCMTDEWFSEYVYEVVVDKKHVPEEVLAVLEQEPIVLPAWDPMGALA
Protocol: Test for resistance to inactivating enzyme.
(1) Extraction of inactivating enzyme.
The liver of female Donryu strain rat was ground in twice by weight of M/15 phosphate buffer of pH 7.2 to prepare a tissue emulsion. The emulsion was centrifuged at 105,000×G for 60 minutes and the supernatant was dialyzed with the above buffer. A high molecular fraction thus obtained was used as the extract solution of an inactivating enzyme.
(2) Examination of inactivating reaction.

[3] = Examples, step A product: copper complex hydrochloride, bleomycin A2 (copper-free form) assumed 1,000 mcg units/mg
[4] = Examples, step B product: copper-free hydrochloride, bleomycin A2 (copper-free form) assumed 1,000 mcg units/mg
[5] = Table 6, Cu-complex, standard copper-free bleomycin A2 assumed 1,000 mcg units/mg
[6] = Table 6, Cu-free, standard copper-free bleomycin A2 assumed 1,000 mcg units/mg
[7] = sample concentration 6.25 mcg/ml
[8] = sample concentration 12.5 mcg/ml

## Cc1c(N)nc(C(CC(N)=O)NCC(N)C(N)=O)nc1C(=O)NC(C(=O)NC(C)C(O)C(C)C(=O)NC(C(=O)NCCc1nc(-c2nc(C(=O)NCCCNC(C)c3ccccc3)cs2)cs1)C(C)O)C(OC1OC(CO)C(O)C(O)C1OC1OC(CO)C(O)C(OC(N)=O)C1O)c1c[nH]cn1 [3-[(S)-1'-phenylethylamino]propylaminobleomycin, reference compound]
HeLa S3 cells
  50% growth inhibitory concentration (ID50) against cultured HeLa S3 cells: 0.52 µg/mL

## N-methylbleomycin A2 [Compound (2)]
[1]; [3]
  Antimicrobial activity: 520 mcg units/mg and 516 mcg units/mg and 507 mcg units/mg
[1]; [4]
  Antimicrobial activity: 418 mcg units/mg and 427 mcg units/mg and 420 mcg units/mg
[1]; [5]
  Antimicrobial activity: 423 mcg units/mg
[1]; [6]
  Antimicrobial activity: 513 mcg units/mg
[2]; [7]
  Acid-soluble DNA (%): 64.6%
[2]; [8]
  Acid-soluble DNA (%): 90.7%
[2]; sample concentration 25 mcg/ml
  Acid-soluble DNA (%): 99.9%
HeLa S3 cells
  50% growth inhibitory concentration (ID50) against cultured HeLa S3 cells: 0.81 µg/mL

## Bleomycin B2 [reference compound]
[2]; [7]
  Acid-soluble DNA (%): 85.6%
[2]; [8]
  Acid-soluble DNA (%): 95.8%
[2]; sample concentration 25 mcg/ml
  Acid-soluble DNA (%): 98.2%
HeLa S3 cells
  50% growth inhibitory concentration (ID50) against cultured HeLa S3 cells: 0.80 µg/mL

## Cc1c(N)nc(C(CC(N)=O)NCC(N)C(N)=O)nc1C(=O)NC(C(=O)NC(C)C(O)C(C)C(=O)NC(C(=O)NCCc1nc(-c2nc(C(=O)O)cs2)cs1)C(C)O)C(OC1OC(CO)C(O)C(O)C1OC1OC(CO)C(O)C(OC(N)=O)C1O)c1cnc[nH]1 (centres unmarked) [Bleomycinic acid, reference compound]
Inactivating enzyme
  Resistance to inactivating enzyme (residual activity with reaction time, FIGS. 1 to 6): markedly susceptible
HeLa S3 cells
  50% growth inhibitory concentration (ID50) against cultured HeLa S3 cells: 18 µg/mL

## Cc1c(N)nc([C@H](CC(N)=O)NC[C@H](N)C(N)=O)nc1C(=O)N[C@H](C(=O)N[C@H](C)[C@@H](O)[C@H](C)C(=O)N[C@H](C(=O)NCCc1nc(-c2nc(C(=O)NCCCN)cs2)cs1)[C@@H](C)O)[C@@H](O[C@@H]1O[C@@H](CO)[C@@H](O)[C@H](O)[C@@H]1O[C@H]1O[C@H](CO)[C@@H](O)[C@H](OC(N)=O)[C@@H]1O)c1cnc[nH]1 [Bleomycin A2 -b, bleomycin A2 '-b, reference compound]
HeLa S3 cells
  50% growth inhibitory concentration (ID50) against cultured HeLa S3 cells: 1.5 µg/mL

## 3-(3-n-butylaminopropylamino)propylaminobleomycin [reference compound]
HeLa S3 cells
  50% growth inhibitory concentration (ID50) against cultured HeLa S3 cells: 0.43 µg/mL

## 3-[(S)-1'-phenylethylamino]propylamino-N-methylbleomycin [Compound (5)]
[1]; [3]
  Antimicrobial activity: 4,320 mcg units/mg
[1]; [4]
  Antimicrobial activity: 4,280 mcg units/mg
[1]; [5]
  Antimicrobial activity: 4,266 mcg units/mg
[1]; [6]
  Antimicrobial activity: 4,333 mcg units/mg
[2]; [7]
  Acid-soluble DNA (%): 70.1%
[2]; [8]
  Acid-soluble DNA (%): 92.6%
[2]; sample concentration 25 mcg/ml
  Acid-soluble DNA (%): 100.5%
HeLa S3 cells
  50% growth inhibitory concentration (ID50) against cultured HeLa S3 cells: 0.30 µg/mL

## Cc1c(N)nc([C@H](CC(N)=O)NC[C@H](N)C(N)=O)nc1C(=O)N[C@H](C(=O)N[C@H](C)[C@@H](O)[C@H](C)C(=O)N[C@H](C(=O)NCCc1nc(-c2nc(C(=O)NCCC[S+](C)C)cs2)cs1)[C@@H](C)O)[C@@H](O[C@@H]1O[C@@H](CO)[C@@H](O)[C@H](O)[C@@H]1O[C@H]1O[C@H](CO)[C@@H](O)[C@H](OC(N)=O)[C@@H]1O)c1c[nH]cn1.[Br-] [Bleomycin A2, reference compound]
[2]; [7]
  Acid-soluble DNA (%): 78.6%
[2]; [8]
  Acid-soluble DNA (%): 90.8%
[2]; sample concentration 25 mcg/ml
  Acid-soluble DNA (%): 100.9%
HeLa S3 cells
  50% growth inhibitory concentration (ID50) against cultured HeLa S3 cells: 0.73 µg/mL

## 3-(3-n-butylaminopropylamino)propylamino-N-methylbleomycin [Compound (6)]
[1]; [5]
  Antimicrobial activity: 3,695 mcg units/mg
[1]; [6]
  Antimicrobial activity: 3,438 mcg units/mg
[2]; [7]
  Acid-soluble DNA (%): 59.5%
[2]; [8]
  Acid-soluble DNA (%): 94.0%
[2]; sample concentration 25 mcg/ml
  Acid-soluble DNA (%): 100.4%
HeLa S3 cells
  50% growth inhibitory concentration (ID50) against cultured HeLa S3 cells: 0.37 µg/mL

## N-methylbleomycin A2 '-b [Compound (4)]
[1]; [4]
  Antimicrobial activity: 618 mcg units/mg
[1]; [5]
  Antimicrobial activity: 625 mcg units/mg
[1]; [6]
  Antimicrobial activity: 595 mcg units/mg
[2]; [7]
  Acid-soluble DNA (%): 61.7%
[2]; [8]
  Acid-soluble DNA (%): 94.1%
[2]; sample concentration 25 mcg/ml
  Acid-soluble DNA (%): 99.4%
HeLa S3 cells
  50% growth inhibitory concentration (ID50) against cultured HeLa S3 cells: 0.58 µg/mL

## N-methylbleomycin B2 [Compound (3)]
[1]; [3]
  Antimicrobial activity: 1,758 mcg units/mg and 1,770 mcg units/mg
[1]; [4]
  Antimicrobial activity: 1,752 mcg units/mg and 1,756 mcg units/mg
[1]; [5]
  Antimicrobial activity: 1,755 mcg units/mg
[1]; [6]
  Antimicrobial activity: 1,766 mcg units/mg
[2]; [7]
  Acid-soluble DNA (%): 87.6%
[2]; [8]
  Acid-soluble DNA (%): 95.5%
[2]; sample concentration 25 mcg/ml
  Acid-soluble DNA (%): 102.1%
HeLa S3 cells
  50% growth inhibitory concentration (ID50) against cultured HeLa S3 cells: 0.35 µg/mL

## N-methylbleomycinic acid [Compound (1)]
[1]; [5]
  Antimicrobial activity: 64 mcg units/mg
[1]; [6]
  Antimicrobial activity: 59 mcg units/mg
HeLa S3 cells
  50% growth inhibitory concentration (ID50) against cultured HeLa S3 cells: 4.8 µg/mL
